Experimental data as given in the NIST ThermoML archive (doi:10.1016/j.jct.2005.09.003).

Legend:
[1] = Liquid
[2] = refractive index (Na D-line) (dimensionless); settings: 298.15 K; 101.33 kPa; Liquid; Standard Abbe refractometry

CCCCCCCC [octane]
mass density [kg/m3], [1]
Settings | 298.15 K | 308.15 K | 318.15 K | 328.15 K
100 kPa | 698.64 | 690.43 | 682.47 | 674.53
2130 kPa | 700.14 | 692.18 | 684.48 | 676.49
4150 kPa | 701.87 | 694 | 686.45 | 678.56
6180 kPa | 703.56 | 695.79 | 688.29 | 680.59
8210 kPa | 705.17 | 697.53 | 690.17 | 682.57
10230 kPa | 706.78 | 699.24 | 691.97 | 684.51
11250 kPa | 707.58 | 700.07 | 692.85 | 685.44
12260 kPa | 708.37 | 700.88 | 693.77 | 686.38
14290 kPa | 709.9 | 702.55 | 695.49 | 688.23
16310 kPa | 711.41 | 704.13 | 697.2 | 690.03
18340 kPa | 712.9 | 705.71 | 698.86 | 691.76
20370 kPa | 714.36 | 707.23 | 700.47 | 693.5
22390 kPa | 715.78 | 708.76 | 702.07 | 695.17
24420 kPa | 717.18 | 710.22 | 703.61 | 696.82
26450 kPa | 718.56 | 711.66 | 705.13 | 698.41
28470 kPa | 719.9 | 713.09 | 706.66 | 699.98
29490 kPa | 720.57 | 713.77 | 707.38 | 700.75
30500 kPa | 721.22 | 714.47 | 708.13 | 701.53
32530 kPa | 722.53 | 715.84 | 709.54 | 703.01
34550 kPa | 723.82 | 717.18 | 710.96 | 704.5
36580 kPa | 725.06 | 718.5 | 712.33 | 705.96
38600 kPa | 726.32 | 719.82 | 713.68 | 707.36
39620 kPa | 726.94 | 720.45 | 714.38 | 708.06

Settings | refractive index
[2] | 1.395
